ChEMBL document CHEMBL4419178, “Yap1 inhibitors that target the interaction of yap1 with oct4” (2018)
Active and inactive are the calls of the source. The calls are words filed in the database; no cut-off is given here.

How the values were obtained:
[1] = biological target: Transcriptional coactivator YAP1 (Homo sapiens) (UniProt P46937); test: Inhibition of YAP1 (unknown origin) assessed as disruption in YAP1/OCT4 interaction at 10 uM by ELISA relative to control
[2] = biological target: Transcriptional coactivator YAP1 (Homo sapiens) (UniProt P46937); test: Inhibition of YAP1 (unknown origin) assessed as disruption in YAP1/OCT4 interaction at 50 uM by cell based assay
[3] = tested on: NCI-H1650; test: Inhibition of self-renewal capacity in stem-like side-population cells of human NCI-H1650 cells assessed as reduction in number of spheres at 5 to 50 uM incubated for 10 days by sphere formation assay; format: functional, cell-based
[4] = tested on: NCI-H1650; test: Cytotoxicity in human NCI-H1650 cells assessed as reduction in cell viability at 1 to 20 uM incubated for 72 hrs by MTT assay; format: functional, cell-based
[5] = tested on: A549; test: Cytotoxicity in human A549 cells assessed as reduction in cell viability at 1 to 20 uM incubated for 72 hrs by MTT assay; format: functional, cell-based
[6] = tested on: NCI-H1650; test: Cytotoxicity in human NCI-H1650 cells assessed as reduction in cell viability at 20 to 50 uM incubated for 24 hrs followed by medium replacement with RPMI medium with 10% FCS for 48 hrs by MTT assay; format: functional, cell-based
[7] = tested on: NCI-H1650; test: Cytotoxicity in human NCI-H1650 cells assessed as reduction in cell viability at 20 to 50 uM incubated for 72 hrs by MTT assay; format: functional, cell-based
[8] = tested on: NCI-H2286; test: Cytotoxicity in human NCI-H2286 cells assessed as reduction in cell viability at 5 to 50 uM incubated for 96 hrs by MTT assay; format: functional, cell-based
[9] = tested on: NCI-H2170; test: Cytotoxicity in human NCI-H2170 cells assessed as reduction in cell viability at 5 to 50 uM incubated for 96 hrs by MTT assay; format: functional, cell-based
[10] = tested on: NCI-H1650; test: Cytotoxicity in human NCI-H1650 cells assessed as induction of cell killing in presence of cancer associated fibroblasts at 20 to 50 uM incubated for 24 to 48 hrs by cytotracker-red/green dye staining based immunofluorescence microscopy; format: functional
[11] = Cytotoxicity in human cancer associated fibroblasts at 20 to 50 uM incubated for 24 to 48 hrs by cytotracker-red/green dye staining based immunofluorescence microscopy
[12] = biological target: Transcriptional coactivator YAP1 (Homo sapiens) (UniProt P46937); test: Inhibition of YAP1 (unknown origin) assessed as disruption in YAP1/OCT4 interaction at 5 uM by ELISA relative to control
[13] = Lipophilicity, logP of the compound; format: physicochemical; conditions: octanol/water
[14] = tested on: NCI-H1650; test: Inhibition of self-renewal capacity in stem-like side-population cells of human NCI-H1650 cells assessed as reduction in number of spheres at 1 to 20 uM incubated for 10 days by sphere formation assay; format: functional, cell-based
[15] = biological target: Transcriptional coactivator YAP1 (Homo sapiens) (UniProt P46937); test: Inhibition of YAP1 in human NCI-H1650 cells assessed as reduction in Sox2 protein expression at 10 uM incubated for 72 hrs by Western blot analysis; format: cell-based
[16] = biological target: Transcriptional coactivator YAP1 (Homo sapiens) (UniProt P46937); test: Inhibition of YAP1 in human NCI-H1650 cells assessed as reduction in c-Myc protein expression at 10 uM incubated for 72 hrs by Western blot analysis; format: cell-based
[17] = biological target: Transcriptional coactivator YAP1 (Homo sapiens) (UniProt P46937); test: Inhibition of YAP1 in human NCI-H1650 cells assessed as reduction in PDK2 protein expression at 10 uM incubated for 72 hrs by Western blot analysis; format: cell-based
[18] = biological target: Transcriptional coactivator YAP1 (Homo sapiens) (UniProt P46937); test: Inhibition of YAP1 in human A549 cells assessed as reduction in Sox2 protein expression at 10 uM incubated for 72 hrs by Western blot analysis; format: cell-based
[19] = biological target: Transcriptional coactivator YAP1 (Homo sapiens) (UniProt P46937); test: Inhibition of YAP1 in human A549 cells assessed as reduction in c-Myc protein expression at 10 uM incubated for 72 hrs by Western blot analysis; format: cell-based
[20] = biological target: Transcriptional coactivator YAP1 (Homo sapiens) (UniProt P46937); test: Inhibition of YAP1 in human A549 cells assessed as reduction in PDK2 protein expression at 10 uM incubated for 72 hrs by Western blot analysis; format: cell-based
[21] = tested on: NCI-H1650; test: Inhibition of adherence-independent cell growth in human NCI-H1650 cells at 5 uM incubated for 33 days; format: functional, cell-based
[22] = tested on: NCI-H1650; test: Inhibition of adherence-independent cell growth in human NCI-H1650 cells at 10 uM incubated for 33 days; format: functional, cell-based
[23] = tested on: NCI-H146; test: Inhibition of self-renewal capacity in methotrexate insensitive stem-like side-population cells of human NCI-H146 cells assessed as reduction in number of spheres at 2 uM incubated for 3 days after 7 days methotrexate exposure by sphere formation assay; format: functional
[24] = tested on: NCI-H1975; test: Cytotoxicity in gefitinib and erlotinib resistant human NCI-H1975 cells assessed as reduction in cell viability at 1 to 10 uM incubated for 72 hrs by MTT assay; format: functional, cell-based
[25] = biological target: Transcriptional coactivator YAP1 (Homo sapiens) (UniProt P46937); test: Inhibition of YAP1 in human NCI-H1650 cells assessed as suppression of Sox2 mRNA expression at 5 to 10 uM incubated for 72 hrs by RT-PCR method; format: cell-based
[26] = biological target: Transcriptional coactivator YAP1 (Homo sapiens) (UniProt P46937); test: Inhibition of YAP1 in human NCI-H1703 cells assessed as suppression of Sox2 mRNA expression at 5 to 10 uM incubated for 72 hrs by RT-PCR method; format: cell-based
[27] = biological target: Transcriptional coactivator YAP1 (Homo sapiens) (UniProt P46937); test: Inhibition of YAP1 in human NCI-H146 cells assessed as suppression of Sox2 mRNA expression at 5 to 10 uM incubated for 72 hrs by RT-PCR method; format: cell-based
[28] = tested on: NCI-H1650; test: Effect on expression of Oct4 mRNA expression in human NCI-H1650 cells at 5 to 10 uM incubated for 72 hrs by RT-PCR method; format: cell-based; conditions: nci-h1650, 72 h
[29] = tested on: NCI-H1650; test: Effect on expression of Nanog mRNA expression in human NCI-H1650 cells at 5 to 10 uM incubated for 72 hrs by RT-PCR method; format: cell-based; conditions: nci-h1650, 72 h
[30] = tested on: NCI-H1703; test: Effect on expression of Oct4 mRNA expression in human NCI-H1703 cells at 5 to 10 uM incubated for 72 hrs by RT-PCR method; format: cell-based; conditions: nci-h1703, 72 h
[31] = tested on: NCI-H1703; test: Effect on expression of Nanog mRNA expression in human NCI-H1703 cells at 5 to 10 uM incubated for 72 hrs by RT-PCR method; format: cell-based; conditions: nci-h1703, 72 h
[32] = tested on: NCI-H146; test: Effect on expression of Oct4 mRNA expression in human NCI-H146 cells at 5 to 10 uM incubated for 72 hrs by RT-PCR method; format: cell-based; conditions: nci-h146, 72 h
[33] = tested on: NCI-H146; test: Effect on expression of Nanog mRNA expression in human NCI-H146 cells at 5 to 10 uM incubated for 72 hrs by RT-PCR method; format: cell-based; conditions: nci-h146, 72 h
[34] = biological target: Transcriptional coactivator YAP1 (Homo sapiens) (UniProt P46937); test: Inhibition of YAP1 in human NCI-H1650 cells assessed as suppression of HK2 mRNA expression at 5 to 10 uM incubated for 72 hrs by RT-PCR method; format: cell-based
[35] = biological target: Transcriptional coactivator YAP1 (Homo sapiens) (UniProt P46937); test: Inhibition of YAP1 in human NCI-H1650 cells assessed as suppression of PDK2 mRNA expression at 5 to 10 uM incubated for 72 hrs by RT-PCR method; format: cell-based
[36] = biological target: Transcriptional coactivator YAP1 (Homo sapiens) (UniProt P46937); test: Inhibition of YAP1 in human NCI-H1703 cells assessed as suppression of HK2 mRNA expression at 5 to 10 uM incubated for 72 hrs by RT-PCR method; format: cell-based
[37] = biological target: Transcriptional coactivator YAP1 (Homo sapiens) (UniProt P46937); test: Inhibition of YAP1 in human NCI-H1703 cells assessed as suppression of PDK2 mRNA expression at 5 to 10 uM incubated for 72 hrs by RT-PCR method; format: cell-based
[38] = biological target: Transcriptional coactivator YAP1 (Homo sapiens) (UniProt P46937); test: Inhibition of YAP1 in human NCI-H146 cells assessed as suppression of HK2 mRNA expression at 5 to 10 uM incubated for 72 hrs by RT-PCR method; format: cell-based
[39] = biological target: Transcriptional coactivator YAP1 (Homo sapiens) (UniProt P46937); test: Inhibition of YAP1 in human NCI-H146 cells assessed as suppression of PDK2 mRNA expression at 5 to 10 uM incubated for 72 hrs by RT-PCR method; format: cell-based
[40] = biological target: Transcriptional coactivator YAP1 (Homo sapiens) (UniProt P46937); test: Inhibition of YAP1 in human NCI-H1650 cells assessed as suppression of PD-L1 mRNA expression at 5 to 10 uM incubated for 72 hrs by RT-PCR method; format: cell-based
[41] = biological target: Transcriptional coactivator YAP1 (Homo sapiens) (UniProt P46937); test: Inhibition of YAP1 in human NCI-H1703 cells assessed as suppression of PD-L1 mRNA expression at 5 to 10 uM incubated for 72 hrs by RT-PCR method; format: cell-based
[42] = tested on: NCI-H1650; test: Inhibition of YAP1/TEAD2 interaction in human NCI-H1650 cells assessed as suppression of CTGF mRNA expression at 5 to 10 uM incubated for 72 hrs by RT-PCR method; format: cell-based
[43] = tested on: NCI-H1703; test: Inhibition of YAP1/TEAD2 interaction in human NCI-H1703 cells assessed as suppression of CTGF mRNA expression at 5 to 10 uM incubated for 72 hrs by RT-PCR method; format: cell-based
[44] = biological target: Transcriptional coactivator YAP1 (Homo sapiens) (UniProt P46937); test: Inhibition of YAP1 in human NCI-H1650 cells assessed as suppression of fibronectin mRNA expression at 5 to 10 uM incubated for 72 hrs by RT-PCR method; format: cell-based
[45] = biological target: Transcriptional coactivator YAP1 (Homo sapiens) (UniProt P46937); test: Inhibition of YAP1 in human NCI-H1650 cells assessed as suppression of vimentin mRNA expression at 5 to 10 uM incubated for 72 hrs by RT-PCR method; format: cell-based
[46] = biological target: Transcriptional coactivator YAP1 (Homo sapiens) (UniProt P46937); test: Inhibition of YAP1 in human NCI-H1703 cells assessed as suppression of fibronectin mRNA expression at 5 to 10 uM incubated for 72 hrs by RT-PCR method; format: cell-based
[47] = biological target: Transcriptional coactivator YAP1 (Homo sapiens) (UniProt P46937); test: Inhibition of YAP1 in human NCI-H1703 cells assessed as suppression of vimentin mRNA expression at 5 to 10 uM incubated for 72 hrs by RT-PCR method; format: cell-based
[48] = tested on: NCI-H1703; test: Inhibition of adherence-independent cell growth in human NCI-H1703 cells at 10 uM incubated for 33 days; format: functional, cell-based
[49] = tested on: NCI-H1703; test: Inhibition of adherence-independent cell growth in human NCI-H1703 cells at 5 uM incubated for 33 days; format: functional, cell-based

Chain of Transcriptional coactivator YAP1 (Homo sapiens) (P46937 whole entry): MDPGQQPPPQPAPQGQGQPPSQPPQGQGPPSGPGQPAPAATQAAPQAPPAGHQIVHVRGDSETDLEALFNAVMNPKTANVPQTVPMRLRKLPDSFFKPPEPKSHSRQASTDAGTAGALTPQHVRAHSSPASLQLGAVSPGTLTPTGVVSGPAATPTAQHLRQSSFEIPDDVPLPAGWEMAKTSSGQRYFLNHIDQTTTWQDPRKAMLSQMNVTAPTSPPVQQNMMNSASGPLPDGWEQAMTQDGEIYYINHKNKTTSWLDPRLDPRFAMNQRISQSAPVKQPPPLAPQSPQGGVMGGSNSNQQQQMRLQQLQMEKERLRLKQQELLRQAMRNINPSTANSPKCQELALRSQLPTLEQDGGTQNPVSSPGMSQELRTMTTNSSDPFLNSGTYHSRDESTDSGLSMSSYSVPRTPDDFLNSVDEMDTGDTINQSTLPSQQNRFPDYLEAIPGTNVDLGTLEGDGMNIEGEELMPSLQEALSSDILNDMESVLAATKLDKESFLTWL

Structure (SMILES): COC(=O)[C@H](Cc1ccc(OCc2ccccc2)cc1)NC(=O)CC1CCN(C(=O)Cc2ccccc2)CC1
- inhibition [1]: 80%
- inhibition [2]: 82%
- inhibition [3]: Active
- Activity [4]: Active
- Activity [5]: Active
- Activity [6]: Active
- Activity [7]: Active
- Activity [8]: Active
- Activity [9]: Active
- Activity [10]: Active
- Activity [11]: Non-Toxic

Structure (SMILES): COC(=O)[C@H](Cc1ccc(OCc2ccccc2)cc1)NC(=O)CC1CCN(C(=O)OC(C)(C)C)CC1
- inhibition [12]: 72.6%
- inhibition [1]: 80.8%
- inhibition [2]: > 75%
- logP [13]: 3.9 to 3.94
- inhibition [14]: Active

Structure (SMILES): COC(=O)[C@H](Cc1ccc(OCc2ccccc2)cc1)NC(=O)CC1CCN(C(=O)CCCc2ccccc2)CC1
- inhibition [15]: Active
- inhibition [16]: Active
- inhibition [17]: Active
- inhibition [18]: Active
- inhibition [19]: Active
- inhibition [20]: Active
- inhibition [21]: Active
- inhibition [22]: Active
- inhibition [23]: Active
- Activity [24]: Active
- inhibition [25]: Active
- inhibition [26]: Active
- inhibition [27]: Active
- Activity [28]: Non-Toxic
- Activity [29]: Non-Toxic
- Activity [30]: Non-Toxic
- Activity [31]: Non-Toxic
- Activity [32]: Non-Toxic
- Activity [33]: Non-Toxic
- inhibition [34]: Active
- inhibition [35]: Active
- inhibition [36]: Active
- inhibition [37]: Active
- inhibition [38]: Active
- inhibition [39]: Active
- inhibition [40]: Active
- inhibition [41]: Active
- inhibition [42]: inactive
- inhibition [43]: inactive
- inhibition [44]: Active
- inhibition [45]: Active
- inhibition [46]: Active
- inhibition [47]: Active
- inhibition [48]: Active
- inhibition [49]: Active
